In publication PMC4858918, “Improving the N-terminal diversity of sansanmycin through mutasynthesis” (Microbial Cell Factories, 2016):
In brackets after ≈: the same amount, converted by molar mass.

Columns and labels:
Test in all cases: MIC, microplate Alamar blue assay (MABA)
Type in all cases: cell-based
[1] = system: M. tuberculosis FJ05189 (MDR clinical isolate); conditions: Mycobacterium tuberculosis, read-out: MIC M. tuberculosis FJ05189
[2] = system: M. tuberculosis FJ05120 (MDR clinical isolate); conditions: Mycobacterium tuberculosis, read-out: MIC M. tuberculosis FJ05120
[3] = system: M. tuberculosis FJ05195 (XDR clinical isolate); conditions: Mycobacterium tuberculosis, read-out: MIC M. tuberculosis FJ05195

Row | SMILES | MIC [1] [µg/mL] | MIC [2] [µg/mL] | MIC [3] [µg/mL]
1 | CC[C@@H](CO)NCCN[C@@H](CC)CO [Ethambutol] | 2 (≈ 9.79 µM) | 0.5 (≈ 2.45 µM) | > 128
2 | NNC(=O)c1ccncc1 [Isoniazid] | 8 (≈ 58.3 µM) | 16 (≈ 117 µM) | > 128
3 | CO[C@H]1/C=C/O[C@@]2(C)Oc3c(C)c(O)c4c(O)c(c(/C=N/N5CCN(C)CC5)c(O)c4c3C2=O)NC(=O)/C(C)=C\C=C\[C@H](C)[C@H](O)[C@@H](C)[C@@H](O)[C@@H](C)[C@H](OC(C)=O)[C@@H]1C [Rifampicin] | 4 (≈ 4.86 µM) | > 128 | > 128
4 | [H]/N=C(/N)N[C@H]1[C@H](O)[C@@H](O)[C@H](O[C@@H]2O[C@@H](C)[C@](O)(C=O)[C@H]2O[C@@H]2O[C@@H](CO)[C@H](O)[C@@H](O)[C@@H]2NC)[C@@H](N/C(N)=N\[H])[C@@H]1O [Streptomycin] | < 0.06 | < 0.06 | > 128
